Results: patent US5672715A, “Herbicidal substituted 3-aryl-pyrazoles” (Monsanto Company, priority 1995, dated 1997)

What was measured:
Assay type in all cases: in vivo
[1] = test system: Barnyardgrass; assay: pre-emergence herbicide test; settings: Echinochloa crus-galli, pre-emergence, 0.25 lb/A; read-out: % plant inhibition
In short: (§1)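 Herbicidal effect was assessed as percent inhibition about 14 days after sowing. A known amount of compound was added to the covering topsoil, and the pans were subirrigated in a greenhouse.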

[2] = test system: Bedstraw Catchweed; assay: pre-emergence herbicide test; settings: Galium aparine, pre-emergence, 0.25 lb/A; read-out: % plant inhibition
In short: as §1

[3] = test system: Birdseye Speedwell; assay: pre-emergence herbicide test; settings: pre-emergence, 0.25 lb/A; read-out: % plant inhibition
In short: as §1

[4] = test system: Blackgrass; assay: pre-emergence herbicide test; settings: Alopecurus myosuroides, pre-emergence, 0.25 lb/A; read-out: % plant inhibition
In short: as §1

[5] = test system: Cocklebur; assay: pre-emergence herbicide test; settings: Xanthium strumarium, pre-emergence, 0.25 lb/A; read-out: % plant inhibition
In short: as §1

[6] = test system: Common Chickweed; assay: pre-emergence herbicide test; settings: pre-emergence, 0.25 lb/A; read-out: % plant inhibition
In short: as §1

[7] = test system: Corn; assay: pre-emergence herbicide test; settings: Zea mays, pre-emergence, 0.25 lb/A; read-out: % plant inhibition
In short: as §1

[8] = test system: Downy Brome; assay: pre-emergence herbicide test; settings: Bromus tectorum, pre-emergence, 0.25 lb/A; read-out: % plant inhibition
In short: as §1

[9] = test system: Giant Foxtail; assay: pre-emergence herbicide test; settings: Setaria faberi, pre-emergence, 0.25 lb/A; read-out: % plant inhibition
In short: as §1

[10] = test system: Green Foxtail; assay: pre-emergence herbicide test; settings: Setaria viridis, pre-emergence; 0.25 lb/A; read-out: % plant inhibition
In short: as §1

[11] = test system: Morning Glory; assay: pre-emergence herbicide test; settings: Ipomoea, pre-emergence, 0.25 lb/A; read-out: % plant inhibition
In short: as §1

[12] = test system: Rape; assay: pre-emergence herbicide test; settings: pre-emergence, 0.25 lb/A; read-out: % plant inhibition
In short: as §1

[13] = test system: Seedling Johnsongrass; assay: pre-emergence herbicide test; settings: Sorghum halepense, pre-emergence, 0.25 lb/A; read-out: % plant inhibition
In short: as §1

[14] = test system: Soybean; assay: pre-emergence herbicide test; settings: Glycine max, pre-emergence, 0.25 lb/A; read-out: % plant inhibition
In short: as §1

[15] = test system: Velvetleaf; assay: pre-emergence herbicide test; settings: Abutilon theophrasti, pre-emergence, 0.25 lb/A; read-out: % plant inhibition
In short: as §1

[16] = test system: Wheat; assay: pre-emergence herbicide test; settings: Triticum aestivum, pre-emergence, 0.25 lb/A; read-out: % plant inhibition
In short: as §1

[17] = test system: Wild Oats; assay: pre-emergence herbicide test; settings: Avena fatua, pre-emergence, 0.25 lb/A; read-out: % plant inhibition
In short: as §1

[18] = test system: Barnyardgrass; assay: post-emergence herbicide test; settings: Echinochloa crus-galli, post-emergence, 0.25 lb/A; read-out: % plant inhibition
In short: (§2)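 Plants grown in greenhouse soil pans for two to three weeks were sprayed with compound in about 0.4% v/v emulsifier at 170.3 kPa and 1870 L/Ha, at the stated application rates. Activity was scored as percent inhibition of each species.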

[19] = test system: Bedstraw Catchweed; assay: post-emergence herbicide test; settings: Galium aparine, post-emergence, 0.25 lb/A; read-out: % plant inhibition
In short: as §2

[20] = test system: Birdseye Speedwell; assay: post-emergence herbicide test; settings: post-emergence, 0.25 lb/A; read-out: % plant inhibition
In short: as §2

[21] = test system: Blackgrass; assay: post-emergence herbicide test; settings: Alopecurus myosuroides, post-emergence, 0.25 lb/A; read-out: % plant inhibition
In short: as §2

[22] = test system: Cocklebur; assay: post-emergence herbicide test; settings: Xanthium strumarium, post-emergence, 0.25 lb/A; read-out: % plant inhibition
In short: as §2

[23] = test system: Common Chickweed; assay: post-emergence herbicide test; settings: post-emergence, 0.25 lb/A; read-out: % plant inhibition
In short: as §2

[24] = test system: Corn; assay: post-emergence herbicide test; settings: Zea mays, post-emergence, 0.25 lb/A; read-out: % plant inhibition
In short: as §2

[25] = test system: Downy Brome; assay: post-emergence herbicide test; settings: Bromus tectorum, post-emergence, 0.25 lb/A; read-out: % plant inhibition
In short: as §2

[26] = test system: Giant Foxtail; assay: post-emergence herbicide test; settings: Setaria faberi, post-emergence, 0.25 lb/A; read-out: % plant inhibition
In short: as §2

[27] = test system: Green Foxtail; assay: post-emergence herbicide test; settings: Setaria viridis, post-emergence, 0.25 lb/A; read-out: % plant inhibition
In short: as §2

[28] = test system: Morning Glory; assay: post-emergence herbicide test; settings: Ipomoea, post-emergence, 0.25 lb/A; read-out: % plant inhibition
In short: as §2

[29] = test system: Rape; assay: post-emergence herbicide test; settings: post-emergence, 0.25 lb/A; read-out: % plant inhibition
In short: as §2

[30] = test system: Seedling Johnsongrass; assay: post-emergence herbicide test; settings: Sorghum halepense, post-emergence, 0.25 lb/A; read-out: % plant inhibition
In short: as §2

[31] = test system: Soybean; assay: post-emergence herbicide test; settings: Glycine max, post-emergence, 0.25 lb/A; read-out: % plant inhibition
In short: as §2

[32] = test system: Velvetleaf; assay: post-emergence herbicide test; settings: Abutilon theophrasti, post-emergence, 0.25 lb/A; read-out: % plant inhibition
In short: as §2

[33] = test system: Wheat; assay: post-emergence herbicide test; settings: Triticum aestivum, post-emergence, 0.25 lb/A; read-out: % plant inhibition
In short: as §2

[34] = test system: Wild Oats; assay: post-emergence herbicide test; settings: Avena fatua, post-emergence, 0.25 lb/A; read-out: % plant inhibition
In short: as §2

| SMILES | inhibition at 280.212 g/ha [1] [%] | inhibition at 280.212 g/ha [2] [%] | inhibition at 280.212 g/ha [3] [%] | inhibition at 280.212 g/ha [4] [%] | inhibition at 280.212 g/ha [5] [%] | inhibition at 280.212 g/ha [6] [%] | inhibition at 280.212 g/ha [7] [%] | inhibition at 280.212 g/ha [8] [%] | inhibition at 280.212 g/ha [9] [%] | inhibition at 280.212 g/ha [10] [%] | inhibition at 280.212 g/ha [11] [%] | inhibition at 280.212 g/ha [12] [%] | inhibition at 280.212 g/ha [13] [%] | inhibition at 280.212 g/ha [14] [%] | inhibition at 280.212 g/ha [15] [%] | inhibition at 280.212 g/ha [16] [%] | inhibition at 280.212 g/ha [17] [%] | inhibition at 280.212 g/ha [18] [%] | inhibition at 280.212 g/ha [19] [%] | inhibition at 280.212 g/ha [20] [%] | further results |
| --- | --- | --- | --- | --- | --- | --- | --- | --- | --- | --- | --- | --- | --- | --- | --- | --- | --- | --- | --- | --- | --- |
| Cc1c(-c2cc(C(=O)OCc3ccco3)c(Cl)cc2F)nn(C)c1C(F)(F)F [Compound 57] | 50 | 80 | 60 | 15 | 10 | 20 | 0 | 20 | 10 | 85 | 90 | 0 | 15 | 0 | 90 | 0 | 5 | 35 | 40 | 100 | inhibition at 280.212 g/ha [21]: 15%; inhibition at 280.212 g/ha [22]: 85%; inhibition at 280.212 g/ha [23]: 55%; inhibition at 280.212 g/ha [24]: 3%; inhibition at 280.212 g/ha [25]: 15%; inhibition at 280.212 g/ha [26]: 15%; inhibition at 280.212 g/ha [27]: 40%; inhibition at 280.212 g/ha [28]: 50%; inhibition at 280.212 g/ha [29]: 15%; inhibition at 280.212 g/ha [30]: 35%; inhibition at 280.212 g/ha [31]: 17%; inhibition at 280.212 g/ha [32]: 100%; inhibition at 280.212 g/ha [33]: 8%; inhibition at 280.212 g/ha [34]: 25% |
| Cc1c(-c2cc(CSCC(C)C)c(Cl)cc2F)nn(C)c1C(F)(F)F [Compound 32] | 5 | 5 | 45 | 10 | 25 | 5 | 5 | 0 | 65 | 40 | 10 | 5 | 85 | 8 | 25 | 0 | 0 | 35 | 45 | 90 | inhibition at 280.212 g/ha [21]: 25%; inhibition at 280.212 g/ha [22]: 65%; inhibition at 280.212 g/ha [23]: 20%; inhibition at 280.212 g/ha [24]: 15%; inhibition at 280.212 g/ha [25]: 25%; inhibition at 280.212 g/ha [26]: 45%; inhibition at 280.212 g/ha [27]: 65%; inhibition at 280.212 g/ha [28]: 40%; inhibition at 280.212 g/ha [29]: 50%; inhibition at 280.212 g/ha [30]: 45%; inhibition at 280.212 g/ha [31]: 20%; inhibition at 280.212 g/ha [32]: 85%; inhibition at 280.212 g/ha [33]: 15%; inhibition at 280.212 g/ha [34]: 20% |
